Laboratory results: patent publication US4960771A, “Oxazolidinone penetration enhancing compounds” (priority 1988, dated 1990)
Where a name gives a salt, the structure may show the parent alone. Read-outs that look alike come from different tables or passages of the source. Blank lines part the entries; values can stand above or below the compound they belong to.

Legend:
Murine Erythroleukemia = conditions: Li et al., J. Med. Chem. 24, 1089 (1981); cited from earlier work
[1] = 0.8% Clonidine; 75.2% compound + 25% isopropyl myristate vs 99.2% compound vs 99.2% DMSO; cited from earlier work
[2] = 1% Diazepam in 74% ethanol and 25% compound; cited from earlier work
[3] = for Average Cumulative Amount of ISDN in Micrograms permeating over 51 hours: cream; for permeation enhancing properties (conclusion in words): ISDN cream, 51 hours
[4] = Permeation of Diltiazem hydrochloride (DZ) from cream through human stratum corneum (Example 35); format: in vitro ADME
From the text: (§1) Sci. 75, 1094 (1986). […] All formulations were studied in triplicate.

[5] = format: in vitro ADME, human
Experimental: as §1
The Indomethacin (INDO) gel formulation used in Example 32 was prepared as follows.

[6] = Permeation of Morphine Sulfate (MS) from transdermal patch through human stratum corneum (Example 33); format: in vitro ADME
From the text: as §1
The procedure of Example 29 was repeated with Morphine Sulfate (MS) formulations incorporated in a transdermal patch.

[7] = format: in vitro ADME, human; conditions: for Average Cumulative Amount of PG in Micrograms permeating over 51 hours: patch, releasing media 30% ethanol in normal saline
From the text: as §1
The procedure of Example 29 was repeated with Progesterone (PG) incorporated in transdermal patch formulations. The releasing media contained 30% ethanol in normal saline.

[8] = format: in vitro ADME, human; remark: listed apart in the source
From the text: as §1

[9] = cream
[10] = for Average Cumulative Amount of ISDN in Micrograms permeating over 51 hours: patch
[11] = for permeation enhancing properties (conclusion in words): ISDN cream, vs control; for Average Cumulative Amount of ISDN in Micrograms permeating over 51 hours: cream, 1% ISDN + 1% enhancer
[12] = Ishihara, C.A. 105: 48896 k (1986); cited from earlier work
[13] = cited from earlier work
[14] = Barry et al., J. Pharm. Pharmacol. 37, 226 (1985); cited from earlier work

SMILES: CCCCN1CCCN(CCCC)C1=O [1,3-dibutyltetrahydropyrimidin-2-one, 1,3-dibutyltetrahydro-pyrimidin-2-ones]
inducers of Murine Erythroleukemia differentiation (Murine Erythroleukemia): inducers of Murine Erythroleukemia differentiation

SMILES: CCN1CCCN(CC)C1=O [1,3-diethyltetrahydropyrimidin-2-one, 1,3-diethyl]
inducers of Murine Erythroleukemia differentiation (Murine Erythroleukemia): inducers of Murine Erythroleukemia differentiation

SMILES: CN1CCN(C)C1=O [1,3-dimethylimidazolidin-2-one]
tail arterial blood pressure [1]: no significant differences in tail arterial blood pressure in rats

SMILES: CCCCCN1CCN(CCCCC)C1=O [1,3-dipentylimidazolidin-2-one]
drug transport when combined with a polar substance such as ethanol [2]: potentiates the drug transport

Average Cumulative Amount of ISDN in Micrograms permeating over 51 hours ([3]; 1% ISDN + 1.4% enhancer): 709 ± 170 Micrograms
SMILES: CCCCCCCCCCCCN1CCCCCC1=O [1-Dodecylhexahydro-2H-azepin-2-one, 1-Dodecyl-hexahydro-2H-azepin-2-one, reference compound]

SMILES: COc1ccc([C@@H]2Sc3ccccc3N(CCN(C)C)C(=O)[C@@H]2OC(C)=O)cc1 [DZ, Diltiazem hydrochloride, reference compound]
Average Cumulative amount of DZ in Micrograms permeating over 24 hours ([4]; 5% DZ, no enhancer (Control)): 125.3 ± 37 Micrograms

SMILES: CCCCCCCCCCC1COC(=O)N1 (centres unmarked) [Example 1, 4-Decyloxazolidin-2-one]
advantage of incorporating enhancer (conclusion in words) ([5]; INDO gel and cream): clearly show the advantage of incorporating enhancer | Average Cumulative Amount of INDO in Micrograms permeating over 51 hours ([5]; cream, 1% INDO + 1% enhancer): 128 ± 6.1 Micrograms | Average Cumulative Amount of INDO in Micrograms permeating over 51 hours ([5]; gel, 1% INDO + 1% enhancer): 370.9 ± 56 Micrograms | superiority of patch formulation containing enhancer (conclusion in words) ([6]; MS patch): superiority of the transdermal patch formulation | Average Cumulative Amount of MS in Micrograms permeating over 51 hours ([6]; patch, 5% MS + 1% enhancer): 622 ± 81.6 Micrograms | superiority of transdermal patch containing enhancer (conclusion in words) ([7]; PG patch): superiority of the transdermal patch | Average Cumulative Amount of PG in Micrograms permeating over 51 hours ([7]; 3% PG + 5% enhancer): 434 ± 135 Micrograms | Average Cumulative amount of DZ in Micrograms permeating over 24 hours ([4]; 5% DZ + 3% enhancer): 303.0 ± 79.1 Micrograms | permeation of Diltiazem hydrochloride through the skin (conclusion in words) ([4]; vs control): improves the permeation of Diltiazem hydrochloride through the skin significantly over the control | permeation enhancement of Nicotine (conclusion in words) ([8]; cream and patch, vs control): enhances the permeation significantly over control | Average Cumulative Amount of Nicotine in Micrograms permeating over 51 hours ([8]; cream, 1% Nicotine + 3% enhancer): 2002.0 ± 74.0 Micrograms | Average Cumulative Amount of Nicotine in Micrograms permeating over 51 hours ([8]; cream, 5% Nicotine + 3% enhancer): 8497.2 ± 1195 Micrograms | Average Cumulative Amount of Nicotine in Micrograms permeating over 51 hours ([8]; patch, 5% Nicotine + 3% enhancer): 208.1 ± 23.6 Micrograms | Average Cumulative Amount of Nicotine in Micrograms permeating over 51 hours ([8]; patch, 10% Nicotine + 3% enhancer): 3520.0 ± 139.0 Micrograms | permeation enhancing properties (conclusion in words) [3]: superior permeation enhancing properties as compared to control and a known permeation enhancer | Average Cumulative Amount of ISDN in Micrograms permeating over 51 hours ([3]; 1% ISDN + 1.4% enhancer): 1275 ± 104 Micrograms | Average Cumulative Amount of HC in Micrograms permeating over 24 hours ([9]; 0.5% HC + 1% enhancer): 4.970 ± 0.79 Micrograms | permeation of HC (conclusion in words) ([9]; vs control and commercial formulation): superior permeation as compared to control cream and to a commercial formulation with higher quantity of drug | Average Cumulative Amount of ISDN in Micrograms permeating over 51 hours ([10]; 3% ISDN (60%) + 8% enhancer): 1438.4 ± 174 Micrograms | Average Cumulative Amount of ISDN in Micrograms permeating over 51 hours ([10]; 3% ISDN (100%) + 3% enhancer): 1355.8 ± 262.5 Micrograms | permeation of ISDN from the transdermal patch (conclusion in words) ([10]; vs control): superior to the control

Average Cumulative Amount of ISDN in Micrograms permeating over 51 hours ([3]; 1% ISDN + 1.6% enhancer): 1020 ± 69 Micrograms
SMILES: CCCCCCCCCCC1COC(=O)N1C (centres unmarked) [Example 2, 3-methyl-4-decyloxazolidin-2-one]
permeation enhancing properties (conclusion in words) [3]: superior permeation enhancing properties as compared to control and a known permeation enhancer

Average Cumulative Amount of ISDN in Micrograms permeating over 51 hours [11]: 1174.5 ± 37.2 Micrograms
SMILES: CCCCCCCCCCC1COC(=O)O1 (centres unmarked) [Example 10, 4-decyl-1,3-dioxolan-2-one]
permeation enhancing properties (conclusion in words) [11]: superior permeation enhancing properties as compared to control

Average Cumulative Amount of ISDN in Micrograms permeating over 51 hours [11]: 1057.7 ± 12.0 Micrograms
SMILES: CCCCN1C(=O)N(CCC)C(OCC)C1OCC (centres unmarked) [Example 12, 4,5-diethoxy-1-butyl-3-propylimidazolidin-2-one]
permeation enhancing properties (conclusion in words) [11]: superior permeation enhancing properties as compared to control

Average Cumulative Amount of ISDN in Micrograms permeating over 51 hours [11]: 1175.6 ± 33.6 Micrograms
SMILES: CCCCCCCCOC1C(OCCCCCCCC)N(C)C(=O)N1C (centres unmarked) [Example 15, 4,5-dioctyloxy-1,3-dimethylimidazolidin-2-one]
permeation enhancing properties (conclusion in words) [11]: superior permeation enhancing properties as compared to control

Average Cumulative Amount of ISDN in Micrograms permeating over 51 hours [11]: 1110.9 ± 84.1 Micrograms
SMILES: CCOCCCN1CCOC1=O [Example 16, 3-(3-ethoxypropyl)oxazolidin-2-one]
permeation enhancing properties (conclusion in words) [11]: superior permeation enhancing properties as compared to control

Average Cumulative Amount of ISDN in Micrograms permeating over 51 hours [11]: 1185.1 ± 94.7 Micrograms
SMILES: CCCCCCCCOCCN1CCOC1=O [Example 18, 3-(2-octyloxyethyl)oxazolidin-2-one]
permeation enhancing properties (conclusion in words) [11]: superior permeation enhancing properties as compared to control

Average Cumulative Amount of ISDN in Micrograms permeating over 51 hours [11]: 1318.4 ± 21.6 Micrograms
SMILES: CCCCCCCCCCCC1CNC(=O)N1 (centres unmarked) [Example 19, 4-undecylimidazolidin-2-one]
permeation enhancing properties (conclusion in words) [11]: superior permeation enhancing properties as compared to control

Average Cumulative Amount of ISDN in Micrograms permeating over 51 hours [11]: 1147.7 ± 36.0 Micrograms
SMILES: CCCCN1C(=O)OCC1Cc1ccccc1 (centres unmarked) [Example 20, 3-butyl-4-benzyloxazolidin-2-one]
permeation enhancing properties (conclusion in words) [11]: superior permeation enhancing properties as compared to control

Average Cumulative Amount of ISDN in Micrograms permeating over 51 hours [11]: 1257.0 ± 137.0 Micrograms
SMILES: CCCCCCCCCCCC1CN(C)C(=O)N1C (centres unmarked) [Example 21, 1,3-dimethyl-4-undecylimidazolidin-2-one]
permeation enhancing properties (conclusion in words) [11]: superior permeation enhancing properties as compared to control

Average Cumulative Amount of ISDN in Micrograms permeating over 51 hours [11]: 1091.2 ± 125.0 Micrograms
SMILES: CCCCN1CCN(CCOCC)C1=O [Example 22, 1-butyl-3-(2-ethoxyethyl)imidazolidin2-one]
permeation enhancing properties (conclusion in words) [11]: superior permeation enhancing properties as compared to control

Average Cumulative Amount of INDO in Micrograms permeating over 51 hours ([5]; cream, 1% INDO, no enhancer): 72 ± 9 Micrograms | Average Cumulative Amount of INDO in Micrograms permeating over 51 hours ([5]; gel, 1% INDO, no enhancer (Control)): 304.8 ± 20 Micrograms
SMILES: COc1ccc2c(c1)c(CC(=O)O)c(C)n2C(=O)c1ccc(Cl)cc1 [INDO, Indomethacin, reference compound]

Average Cumulative Amount of PG in Micrograms permeating over 51 hours ([7]; 3% PG, no enhancer (Control)): 86 ± 61 Micrograms
SMILES: CC(=O)[C@H]1CC[C@H]2[C@@H]3CCC4=CC(=O)CC[C@]4(C)[C@H]3CC[C@]12C [PG, Progesterone, reference compound]

SMILES: O=C1OCCO1 [ethylene carbonate, 1,3-dioxolan-2-one]
efficacy on addition to the composition [12]: did not improve the efficacy

SMILES: CC1COC(=O)O1 (centres unmarked) [propylene carbonate, 4-methyl-1,3-dioxolan-2-one]
solubility in water [13]: water soluble | flux of model penetrants through human skin [14]: low flux
